Assay results published in US4479951A, “1.4;3.6-Dianhydrohexitol nitrates substituted by purine bases, processes for their preparation and pharmaceutical compositions” (Dr. Willmar Schwabe GmbH & Co., priority 1980, dated 1984).

System: mongrel dogs
Assay: circulatory-pharmacological effectiveness on the narcotised dog, intravenous administration
Format: in vivo

`Nc1ncnc2c1ncn2[C@H]1CO[C@H]2[C@@H]1OC[C@@H]2O[N+](=O)[O-]` [1c/2c, 5-(9-Adenyl)-5-desoxy-1.4;3.6-dianhydro-L-iditol 2-nitrate] was tested, and the “APdiast: diastolic aorta pressure” value (40 min after i.v. 1 mg/kg) was 81.0 mm.Hg, the “APsyst: systolic aorta pressure” value (40 min after i.v. 1 mg/kg) was 126.6 mm.Hg and the “BFFem: blood flow in the A. femoralis, referred to 20 kg. body weight” value (“BFFem: blood flow in the A. femoralis” for short) (40 min after i.v. 1 mg/kg) was 46.3 mL/min. For the same compound, the “HF: heart frequency” value (40 min after i.v. 1 mg/kg) was 120.7 min⁻¹, the “HLL: heart capacity left, referred to 20 kg. body weight” value (“HLL: heart capacity left, referred” for short) (40 min after i.v. 1 mg/kg) was 0.76 W and the “HLR: heart capacity right, referred to 20 kg. body weight” value (“HLR: heart capacity right, referred” below) (40 min after i.v. 1 mg/kg) was 89.3 mW. The HZV: heart minute volume, referred to 20 kg. body weight (40 min after i.v. 1 mg/kg) was 3.72 L/min, the “LVEDP: end diastolic pressure in the left ventricle” value (“LVEDP: end diastolic pressure” below) (40 min after i.v. 1 mg/kg) was 4.41 mm.Hg and the “PAP: average pressure in the A. pulmonalis” value (from here on “PAP: average pressure”) (40 min after i.v. 1 mg/kg) was 14.1 ±1.8 mm.Hg. The “PRA: pressure in the right atrium” value (40 min after i.v. 1 mg/kg) was 3.37 mm.Hg, the “SV: beat volume, referred to 20 kg. body weight” value (from here on “SV: beat volume, referred”) (40 min after i.v. 1 mg/kg) was 32.7 mL and the “WAP: pulmonalis resistance, referred to 20 kg. body weight” value (shortened to “WAP: pulmonalis resistance, referred”) (40 min after i.v. 1 mg/kg) was 0.35 U. The “WFem: femoralis resistance, referred to 20 kg. body weight” value (shortened to “WFem: femoralis resistance, referred”) (40 min after i.v. 1 mg/kg) was 0.27 KU, the “WTP: total peripheral resistance, referred to 20 kg. body weight” value (shortened to “WTP: total peripheral resistance”) (40 min after i.v. 1 mg/kg) was 3.34 U and the “dp/dt: rate of pressure increase in the left ventricle” value (“dp/dt: rate of pressure increase” for short) (40 min after i.v. 1 mg/kg) was 2137.5 mm.Hg/sec. For the same compound, the “APdiast: diastolic aorta pressure” value (50 min after i.v. 1 mg/kg) was 83.4 mm.Hg, the “APsyst: systolic aorta pressure” value (50 min after i.v. 1 mg/kg) was 131.2 mm.Hg and the “BFFem: blood flow in the A. femoralis” value (50 min after i.v. 1 mg/kg) was 50.6 mL/min. The “HF: heart frequency” value (50 min after i.v. 1 mg/kg) was 118.7 min⁻¹, the “HLL: heart capacity left, referred” value (50 min after i.v. 1 mg/kg) was 0.75 W and the “HLR: heart capacity right, referred” value (50 min after i.v. 1 mg/kg) was 83.6 mW. The HZV: heart minute volume, referred to 20 kg. body weight (50 min after i.v. 1 mg/kg) was 3.55 L/min, the “LVEDP: end diastolic pressure” value (50 min after i.v. 1 mg/kg) was 4.69 mm.Hg and the “PAP: average pressure” value (50 min after i.v. 1 mg/kg) was 13.9 ±1.9 mm.Hg. The “PRA: pressure in the right atrium” value (50 min after i.v. 1 mg/kg) was 3.43 mm.Hg, the “SV: beat volume, referred” value (50 min after i.v. 1 mg/kg) was 32.0 mL and the “WAP: pulmonalis resistance, referred” value (50 min after i.v. 1 mg/kg) was 0.34 U. The “WFem: femoralis resistance, referred” value (50 min after i.v. 1 mg/kg) was 0.26 KU, the “WTP: total peripheral resistance” value (50 min after i.v. 1 mg/kg) was 3.61 U and the “dp/dt: rate of pressure increase” value (50 min after i.v. 1 mg/kg) was 2118.5 mm.Hg/sec. For the same compound, the “APdiast: diastolic aorta pressure” value (60 min after i.v. 1 mg/kg) was 87.6 mm.Hg, the “APsyst: systolic aorta pressure” value (60 min after i.v. 1 mg/kg) was 133.1 mm.Hg and the “BFFem: blood flow in the A. femoralis” value (60 min after i.v. 1 mg/kg) was 50.4 mL/min. For the same compound, the “HF: heart frequency” value (60 min after i.v. 1 mg/kg) was 114.2 min⁻¹, the “HLL: heart capacity left, referred” value (60 min after i.v. 1 mg/kg) was 0.79 W and the “HLR: heart capacity right, referred” value (60 min after i.v. 1 mg/kg) was 89.5 mW. For the same compound, the HZV: heart minute volume, referred to 20 kg. body weight (60 min after i.v. 1 mg/kg) was 3.73 L/min, the “LVEDP: end diastolic pressure” value (60 min after i.v. 1 mg/kg) was 4.78 mm.Hg and the “PAP: average pressure” value (60 min after i.v. 1 mg/kg) was 14.1 ±2.0 mm.Hg. The “PRA: pressure in the right atrium” value (60 min after i.v. 1 mg/kg) was 3.37 mm.Hg, the “SV: beat volume, referred” value (60 min after i.v. 1 mg/kg) was 35.6 mL and the “WAP: pulmonalis resistance, referred” value (60 min after i.v. 1 mg/kg) was 0.33 U. For the same compound, the “WFem: femoralis resistance, referred” value (60 min after i.v. 1 mg/kg) was 0.26 KU, the “WTP: total peripheral resistance” value (60 min after i.v. 1 mg/kg) was 3.46 U and the “dp/dt: rate of pressure increase” value (60 min after i.v. 1 mg/kg) was 2118.5 mm.Hg/sec. The “APdiast: diastolic aorta pressure” value (90 min after i.v. 1 mg/kg) was 87.6 mm.Hg, the “APsyst: systolic aorta pressure” value (90 min after i.v. 1 mg/kg) was 136.9 mm.Hg and the “BFFem: blood flow in the A. femoralis” value (90 min after i.v. 1 mg/kg) was 50.8 mL/min. The “HF: heart frequency” value (90 min after i.v. 1 mg/kg) was 107.5 min⁻¹, the “HLL: heart capacity left, referred” value (90 min after i.v. 1 mg/kg) was 0.82 W and the “HLR: heart capacity right, referred” value (90 min after i.v. 1 mg/kg) was 91.5 mW. The HZV: heart minute volume, referred to 20 kg. body weight (90 min after i.v. 1 mg/kg) was 3.77 L/min, the “LVEDP: end diastolic pressure” value (90 min after i.v. 1 mg/kg) was 5.25 mm.Hg and the “PAP: average pressure” value (90 min after i.v. 1 mg/kg) was 14.5 ±2.1 mm.Hg. The “PRA: pressure in the right atrium” value (90 min after i.v. 1 mg/kg) was 3.85 mm.Hg, the “SV: beat volume, referred” value (90 min after i.v. 1 mg/kg) was 37.1 mL and the “WAP: pulmonalis resistance, referred” value (90 min after i.v. 1 mg/kg) was 0.32 U. The “WFem: femoralis resistance, referred” value (90 min after i.v. 1 mg/kg) was 0.27 KU, the “WTP: total peripheral resistance” value (90 min after i.v. 1 mg/kg) was 3.59 U and the “dp/dt: rate of pressure increase” value (90 min after i.v. 1 mg/kg) was 2081.2 mm.Hg/sec.
